Source: the NIST ThermoML archive (doi:10.1016/j.fluid.2018.11.010)

Test: wn = mass fraction of the nth substance listed
Settings: 298.15 K, Wilhelmy plate method

For `CC(=O)[O-].CCCCCCn1cc[n+](C)c1` [3-hexyl-1-methylimidazolium acetate] + O, the surface tension liquid-gas (w1 = 7e-05) was 66.55 mN/m, the surface tension liquid-gas (w1 = 0.00069) was 60.77 mN/m and the surface tension liquid-gas (w1 = 0.01013) was 51.97 mN/m. For the same molecule, the surface tension liquid-gas (w1 = 0.3005) was 41 mN/m and the surface tension liquid-gas (w1 = 1) was 36 mN/m.
